From the NIST ThermoML archive (doi:10.1016/j.jct.2019.02.028)
Where “and” joins values, the source holds several entries; their conditions need not be identical. Identical values can stand only once.

Assay: xn = mol fraction of the nth substance listed
Conditions: Gas, Burnett expansion method

C=C(F)C(F)(F)F [2,3,3,3-tetrafluoro-1-propene] + FCF
Conditions | mass density
373.17 K, 4066.8 kPa, x2 = 0.259 | 238.02 kg/m3
373.17 K, 4925.9 kPa, x2 = 0.874 | 143.64 kg/m3
373.18 K, 619.83 kPa, x2 = 0.259 | 20.68 kg/m3
373.18 K, 900.76 kPa, x2 = 0.449 | 26.92 kg/m3
373.18 K, 906.18 kPa, x2 = 0.259 | 31.05 kg/m3
373.18 K, 916.21 kPa, x2 = 0.874 | 18.76 kg/m3
373.18 K, 1093.4 kPa, x2 = 0.119 | 41.92 kg/m3
373.18 K, 1339 kPa, x2 = 0.874 | 28.18 kg/m3
373.18 K, 1863.1 kPa, x2 = 0.449 | 60.74 kg/m3
373.18 K, 2517.6 kPa, x2 = 0.259 | 105.24 kg/m3
373.18 K, 2728.4 kPa, x2 = 0.874 | 63.56 kg/m3
373.18 K, 3301.3 kPa, x2 = 0.259 | 158.31 kg/m3
373.19 K, 755.34 kPa, x2 = 0.119 | 27.91 kg/m3
373.19 K, 1931.1 kPa, x2 = 0.874 | 42.32 kg/m3
373.19 K, 2828.2 kPa, x2 = 0.119 | 142.15 kg/m3
373.2 K, 624.61 kPa, x2 = 0.874 | 12.49 kg/m3
373.2 K, 3505 kPa, x2 = 0.119 | 213.51 kg/m3
373.2 K, 4006.2 kPa, x2 = 0.119 | 320.47 kg/m3
373.2 K, 4661.9 kPa, x2 = 0.259 | 359.6 kg/m3
373.21 K, 1306.4 kPa, x2 = 0.259 | 46.64 kg/m3
378.05 K, 2079.9 kPa, x2 = 0.698 | 53.99 kg/m3
378.06 K, 1451.7 kPa, x2 = 0.698 | 35.94 kg/m3
378.07 K, 5426.1 kPa, x2 = 0.449 | 308.92 kg/m3
378.08 K, 622.36 kPa, x2 = 0.449 | 17.91 kg/m3
378.08 K, 2782.2 kPa, x2 = 0.874 | 63.55 kg/m3
378.08 K, 2911.8 kPa, x2 = 0.698 | 81.09 kg/m3
378.08 K, 3552.8 kPa, x2 = 0.449 | 136.97 kg/m3
378.08 K, 4525.2 kPa, x2 = 0.449 | 205.67 kg/m3
378.09 K, 1328.7 kPa, x2 = 0.449 | 40.42 kg/m3
378.09 K, 1878.5 kPa, x2 = 0.259 | 70.04 kg/m3
378.09 K, 2649.2 kPa, x2 = 0.449 | 91.19 kg/m3
378.09 K, 3936.7 kPa, x2 = 0.698 | 121.78 kg/m3
378.09 K, 4937.5 kPa, x2 = 0.259 | 358.03 kg/m3
378.09 K, 5074.6 kPa, x2 = 0.698 | 182.93 kg/m3
378.1 K, 678.04 kPa, x2 = 0.698 | 15.93 kg/m3
378.1 K, 920.5 kPa, x2 = 0.259 | 31.05 kg/m3
378.1 K, 997.84 kPa, x2 = 0.698 | 23.93 kg/m3
378.1 K, 1582.4 kPa, x2 = 0.119 | 62.96 kg/m3
378.1 K, 1897.6 kPa, x2 = 0.449 | 60.71 kg/m3
378.1 K, 2190.4 kPa, x2 = 0.119 | 94.57 kg/m3
378.1 K, 3832.4 kPa, x2 = 0.874 | 95.49 kg/m3
378.1 K, 4232.9 kPa, x2 = 0.259 | 237.67 kg/m3
378.1 K, 5071.5 kPa, x2 = 0.874 | 143.48 kg/m3
378.11 K, 629.16 kPa, x2 = 0.259 | 20.67 kg/m3
378.11 K, 767.1 kPa, x2 = 0.119 | 27.9 kg/m3
378.11 K, 914.69 kPa, x2 = 0.449 | 26.91 kg/m3
378.11 K, 1360.2 kPa, x2 = 0.874 | 28.17 kg/m3
378.11 K, 1964.7 kPa, x2 = 0.874 | 42.31 kg/m3
378.11 K, 2577.3 kPa, x2 = 0.259 | 105.22 kg/m3
378.11 K, 2909.1 kPa, x2 = 0.119 | 142.06 kg/m3
378.12 K, 633.28 kPa, x2 = 0.874 | 12.49 kg/m3
378.12 K, 929.88 kPa, x2 = 0.874 | 18.75 kg/m3
378.12 K, 1329.1 kPa, x2 = 0.259 | 46.64 kg/m3
378.12 K, 3399.6 kPa, x2 = 0.259 | 158.16 kg/m3
378.12 K, 3642.1 kPa, x2 = 0.119 | 213.38 kg/m3
378.12 K, 4237.1 kPa, x2 = 0.119 | 320.38 kg/m3
378.13 K, 1112 kPa, x2 = 0.119 | 41.91 kg/m3
382.98 K, 1475.1 kPa, x2 = 0.698 | 35.93 kg/m3
382.98 K, 2117.2 kPa, x2 = 0.698 | 53.97 kg/m3
382.99 K, 631.25 kPa, x2 = 0.449 | 17.91 kg/m3
383 K, 1350.2 kPa, x2 = 0.449 | 40.4 kg/m3
383 K, 2705.6 kPa, x2 = 0.449 | 91.15 kg/m3
383 K, 2835.7 kPa, x2 = 0.874 | 63.53 kg/m3
383 K, 3918.9 kPa, x2 = 0.874 | 95.42 kg/m3
383 K, 4682.2 kPa, x2 = 0.449 | 205.63 kg/m3
383 K, 5686.5 kPa, x2 = 0.449 | 308.85 kg/m3
383.01 K, 928.35 kPa, x2 = 0.449 | 26.9 kg/m3
383.01 K, 1476 kPa, x2 = 0.698 | 35.93 kg/m3
383.01 K, 2118 kPa, x2 = 0.698 | 53.97 kg/m3
383.01 K, 2705.6 kPa, x2 = 0.449 | 91.15 kg/m3
383.01 K, 2972.2 kPa, x2 = 0.698 | 81.06 kg/m3
383.01 K, 3646.5 kPa, x2 = 0.449 | 136.9 kg/m3
383.01 K, 4036.2 kPa, x2 = 0.698 | 121.75 kg/m3
383.01 K, 4682.4 kPa, x2 = 0.449 | 205.63 kg/m3
383.01 K, 5245.7 kPa, x2 = 0.698 | 182.87 kg/m3
383.02 K, 928.34 kPa, x2 = 0.449 | 26.9 kg/m3
383.02 K, 1012.8 kPa, x2 = 0.698 | 23.92 kg/m3
383.02 K, 1381.5 kPa, x2 = 0.874 | 28.16 kg/m3
383.02 K, 1914.9 kPa, x2 = 0.259 | 70.04 kg/m3
383.02 K, 1937.6 kPa, x2 = 0.449 | 60.69 kg/m3
383.02 K, 1937.7 kPa, x2 = 0.449 | 60.69 kg/m3
383.02 K, 2238 kPa, x2 = 0.119 | 94.52 kg/m3
383.02 K, 2635.6 kPa, x2 = 0.259 | 105.19 kg/m3
383.02 K, 2635.8 kPa, x2 = 0.259 | 105.19 kg/m3
383.02 K, 2972.4 kPa, x2 = 0.698 | 81.06 kg/m3
383.02 K, 3646.6 kPa, x2 = 0.449 | 136.9 kg/m3
383.02 K, 3919.7 kPa, x2 = 0.874 | 95.42 kg/m3
383.02 K, 4035.8 kPa, x2 = 0.698 | 121.75 kg/m3
383.02 K, 4396.6 kPa, x2 = 0.259 | 237.32 kg/m3
383.02 K, 5211.2 kPa, x2 = 0.259 | 356.45 kg/m3 and 356.44 kg/m3
383.02 K, 5215.7 kPa, x2 = 0.874 | 143.31 kg/m3
383.02 K, 5215.8 kPa, x2 = 0.874 | 143.31 kg/m3
383.02 K, 5245.8 kPa, x2 = 0.698 | 182.87 kg/m3
383.03 K, 934.81 kPa, x2 = 0.259 | 31.04 kg/m3
383.03 K, 1350.5 kPa, x2 = 0.449 | 40.4 kg/m3
383.03 K, 1351.5 kPa, x2 = 0.259 | 46.63 kg/m3
383.03 K, 1381.4 kPa, x2 = 0.874 | 28.16 kg/m3
383.03 K, 1611.8 kPa, x2 = 0.119 | 62.93 kg/m3
383.03 K, 1611.9 kPa, x2 = 0.119 | 62.93 kg/m3
383.03 K, 1915 kPa, x2 = 0.259 | 70.04 kg/m3
383.03 K, 1998.1 kPa, x2 = 0.874 | 42.29 kg/m3
383.03 K, 2238.3 kPa, x2 = 0.119 | 94.52 kg/m3
383.03 K, 2836.1 kPa, x2 = 0.874 | 63.53 kg/m3
383.03 K, 2989.1 kPa, x2 = 0.119 | 141.97 kg/m3
383.03 K, 3496.5 kPa, x2 = 0.259 | 158 kg/m3
383.03 K, 3777.6 kPa, x2 = 0.119 | 213.24 kg/m3
383.03 K, 4397.4 kPa, x2 = 0.259 | 237.31 kg/m3
383.03 K, 4464.7 kPa, x2 = 0.119 | 320.28 kg/m3
383.03 K, 4465 kPa, x2 = 0.119 | 320.28 kg/m3
383.04 K, 638.24 kPa, x2 = 0.259 | 20.67 kg/m3
383.04 K, 642.12 kPa, x2 = 0.874 | 12.48 kg/m3
383.04 K, 688.17 kPa, x2 = 0.698 | 15.93 kg/m3
383.04 K, 778.8 kPa, x2 = 0.119 | 27.9 kg/m3
383.04 K, 943.49 kPa, x2 = 0.874 | 18.75 kg/m3
383.04 K, 1130.2 kPa, x2 = 0.119 | 41.9 kg/m3
383.04 K, 1998.1 kPa, x2 = 0.874 | 42.29 kg/m3
383.04 K, 2989.2 kPa, x2 = 0.119 | 141.97 kg/m3
383.04 K, 3777.7 kPa, x2 = 0.119 | 213.24 kg/m3
383.05 K, 943.52 kPa, x2 = 0.874 | 18.75 kg/m3
383.05 K, 3496.8 kPa, x2 = 0.259 | 158 kg/m3
383.06 K, 935.34 kPa, x2 = 0.259 | 31.04 kg/m3
383.06 K, 1130.4 kPa, x2 = 0.119 | 41.9 kg/m3
